Test results reported in patent US7687079B2, “Methods of treating ileus” (priority 2002, dated 2010).

Tests used:
iNOS mRNA = iNOS mRNA expression in muscularis of transplanted grafts (real time RT-PCR); assay type: in vivo, rat; conditions: CO-treated SITx rats, 4 hours after reperfusion; p=0.060
Procedure: (§1) The effects of inhalation of CO on transplant-induced pro-inflammatory and anti-inflammatory gene expression was assessed in muscularis extracts by RT-PCR. Muscularis extemae was collected from normal intestine and transplanted grafts 4 hours postoperatively and snap frozen in liquid nitrogen. This time point falls within the range of maximum inflammatory mediator expression that occurs between 3 and 6 hours following abdominal incision. Total RNA extraction was performed using the guanidium-thiocyanate phenol-chloroform extraction method as described previously (Eskandari et al., Am. J. Clin. Pathol. 75(3):367-370 (1997)). RNA pellets were resuspended in RNA-secure resuspension solution (Ambion Inc., Austin, Tex.), followed by removal of potentially contaminating DNA by treatment with DNase I (DNA-Free Kit, Ambion Inc., Austin, Tex.). Equal aliquots (5 μg) of total RNA from each sample were quantified by spectrophotometry (wavelength […]) and aliquoted at a concentration of 40 ng/μl. Peak mRNA expression was quantified in duplicate by SYBR Green two-step, real-time RT-PCR. […] Real-time PCR data were plotted as the ΔRn, fluorescence signal versus the cycle number. […] Quantification of mRNA expression was normalized to GAPDH and calculated relative to control using the comparative CT method (Schmittgen et al., J. Biochem. Biophys. Methods 46(1-2):69-8 (2000)). […]

[1] = test system: IL-6, IL-1β, TNFα, ICAM-1, COX-2, iNOS, IL-10 mRNA; assay: real time RT-PCR of inflammatory mediators, CO alone without surgery; assay type: in vivo, rat; conditions: inhalation of CO alone (no surgery)
Procedure: as §1

[2] = test system: total nitrite (NO production); assay: total nitrite release from muscularis extracts (index of iNOS activity); assay type: in vivo, mouse; conditions: IM + CO vs IM, 24 hours after surgery
Procedure: Protein and Nitric Oxide Determinations. The small bowel of control and mice subjected to intestinal manipulation was removed under sterile conditions, 4 or 24 hours post-operatively, leaving the colon in situ. The small intestine was transferred to a beaker containing chilled Hanks balanced salt solution (Sigma, St. Louis, Mo.) with 200 U/ml penicillin G and 200 μg/ml streptomycin (HBSS), the lumen flushed, and the tissue transferred to a second beaker of HBSS. The muscularis was harvested as described above for real time RT-PCR. Tissues were maintained under sterile conditions at 3 to 5° C. throughout the harvesting procedure. Isolated muscularis was blotted onto sterile gauze, and the wet weight determined to obtain aliquots of 40 to 60 mg. […]
After the incubation period, the muscle tissue was pelleted, and aliquots of culture medium were frozen in liquid nitrogen and stored at −80° C. The levels of IL-6, IL-1β, PGE2, and IL-10 proteins secreted into the culture medium were determined using commercially available ELISA kits (R&D Systems, Minneapolis, Minn.) according to the manufacturer's instructions. […] Nitrate/nitrate levels were measured 24 hrs postoperatively using commercially available test kit (Oxford Biomedical Research, Oxford, Mich.) and quantified according to the manufacturer's directions. […]

## [C-]#[O+] [CO, carbon monoxide]
iNOS mRNA
  reduction of mean relative iNOS mRNA expression: approximately 50%
[1]
  expression of any of the mediators studied: no effect
[2]
  surgically induced increase in nitrite release: significantly inhibited
